Laboratory results reported in PubChem BioAssay (NCI).
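Cultured in 96-well plates, cells were exposed to test compound for 48 hours across five concentrations. Here, GI50 denotes the concentration required for 50% inhibition of growth. TGI denotes the concentration required for complete inhibition of growth.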

Legend:
Experiment in all cases: NCI tumour cell line growth inhibition, 48 h
RXF 393 renal = tested on: RXF 393 renal
KM20L2 colon = tested on: KM20L2 colon
SK-OV-3 ovarian = tested on: SK-OV-3 ovarian
SK-MEL-5 melanoma = tested on: SK-MEL-5 melanoma
NCI-H23 lung = tested on: NCI-H23 lung
SNB-19 CNS = tested on: SNB-19 CNS
K-562 leukemia = tested on: K-562 leukemia
OVCAR-5 ovarian = tested on: OVCAR-5 ovarian
HCC-2998 colon = tested on: HCC-2998 colon
SK-MEL-28 melanoma = tested on: SK-MEL-28 melanoma
HOP-18 NSCLC = tested on: HOP-18 NSCLC
HOP-92 NSCLC = tested on: HOP-92 NSCLC
KM12 colon = tested on: KM12 colon
UACC-62 melanoma = tested on: UACC-62 melanoma
NCI-H522 lung = tested on: NCI-H522 lung
MOLT-4 leukemia = tested on: MOLT-4 leukemia
HOP-62 NSCLC = tested on: HOP-62 NSCLC
DMS 273 small cell lung = tested on: DMS 273 small cell lung
XF 498 CNS = tested on: XF 498 CNS
OVCAR-4 ovarian = tested on: OVCAR-4 ovarian
U251 CNS = tested on: U251 CNS
SNB-78 CNS = tested on: SNB-78 CNS
HCT-15 colon = tested on: HCT-15 colon
SN12K1 renal = tested on: SN12K1 renal
NCI-H226 lung = tested on: NCI-H226 lung
HCT-116 colon = tested on: HCT-116 colon
IGROV1 ovarian = tested on: IGROV1 ovarian
LOX IMVI melanoma = tested on: LOX IMVI melanoma
MCF7 breast = tested on: MCF7 breast
SF-539 CNS = tested on: SF-539 CNS
SN12C renal = tested on: SN12C renal
HT29 colon = tested on: HT29 colon
SF-295 CNS = tested on: SF-295 CNS
CAKI-1 renal = tested on: CAKI-1 renal
SF-268 CNS = tested on: SF-268 CNS
COLO 205 colon = tested on: COLO 205 colon
UACC-257 melanoma = tested on: UACC-257 melanoma
EKVX NSCLC = tested on: EKVX NSCLC
NCI-H460 lung = tested on: NCI-H460 lung
HL-60(TB) leukemia = tested on: HL-60(TB) leukemia
A498 renal = tested on: A498 renal
SNB-75 CNS = tested on: SNB-75 CNS
P388/ADR leukemia = tested on: P388/ADR leukemia
UO-31 renal = tested on: UO-31 renal
OVCAR-3 ovarian = tested on: OVCAR-3 ovarian
SK-MEL-2 melanoma = tested on: SK-MEL-2 melanoma
DMS 114 small cell lung = tested on: DMS 114 small cell lung
NCI/ADR-RES ovarian = tested on: NCI/ADR-RES ovarian
P388 leukemia = tested on: P388 leukemia
OVCAR-8 ovarian = tested on: OVCAR-8 ovarian
CCRF-CEM leukemia = tested on: CCRF-CEM leukemia
M19-MEL melanoma = tested on: M19-MEL melanoma
MALME-3M melanoma = tested on: MALME-3M melanoma
DLD-1 colon = tested on: DLD-1 colon
SW-620 colon = tested on: SW-620 colon
RPMI-8226 leukemia = tested on: RPMI-8226 leukemia
A549 NSCLC = tested on: A549 NSCLC
LXFL 529 NSCLC = tested on: LXFL 529 NSCLC
SR leukemia = tested on: SR leukemia
RXF-631 renal = tested on: RXF-631 renal
M14 melanoma = tested on: M14 melanoma
TK-10 renal = tested on: TK-10 renal
786-0 renal = tested on: 786-0 renal

Compound `CC12CCC(CC1)C(C)(C)O2` has a TGI (RXF 393 renal) of 56.9 µM, a TGI (KM20L2 colon) of 116 µM and a TGI (SK-OV-3 ovarian) of 223 µM. For the same compound, the TGI (SK-MEL-5 melanoma) was 21.8 µM, the TGI (NCI-H23 lung) was 121 µM and the GI50 (SNB-19 CNS) was 20.8 µM. The TGI (SNB-19 CNS) was 103 µM, the GI50 (K-562 leukemia) was 37.9 µM and the TGI (K-562 leukemia) was 183 µM. For the same compound, the TGI (OVCAR-5 ovarian) was 116 µM, the TGI (HCC-2998 colon) was 97.7 µM and the TGI (SK-MEL-28 melanoma) was 131 µM. It also gave a GI50 (HOP-18 NSCLC) of 16.7 µM, a TGI (HOP-18 NSCLC) of 88.5 µM and a TGI (HOP-92 NSCLC) of 95.2 µM. It also gave a TGI (KM12 colon) of 118 µM, a TGI (UACC-62 melanoma) of 69.6 µM and a TGI (NCI-H522 lung) of 77.3 µM. For the same compound, the TGI (MOLT-4 leukemia) was 77.2 µM, the TGI (HOP-62 NSCLC) was 52.2 µM and the TGI (DMS 273 small cell lung) was 18.3 µM. The TGI (XF 498 CNS) was 5.51 µM, the TGI (OVCAR-4 ovarian) was 129 µM and the TGI (U251 CNS) was 112 µM. For the same compound, the TGI (SNB-78 CNS) was 261 µM, the TGI (HCT-15 colon) was 71.8 µM and the TGI (SN12K1 renal) was 110 µM. The GI50 (NCI-H226 lung) was 6.25 µM, the TGI (NCI-H226 lung) was 42.4 µM and the GI50 (HCT-116 colon) was 12.6 µM. The TGI (HCT-116 colon) was 81.3 µM, the TGI (IGROV1 ovarian) was 86.3 µM and the TGI (LOX IMVI melanoma) was 48.7 µM. It also gave a TGI (MCF7 breast) of 27.9 µM, a TGI (SF-539 CNS) of 90.1 µM and a TGI (SN12C renal) of 71.7 µM. It also gave a TGI (HT29 colon) of 128 µM, a TGI (SF-295 CNS) of 116 µM and a GI50 (CAKI-1 renal) of 15.7 µM. It also gave a TGI (CAKI-1 renal) greater than 61.2 µM, a TGI (SF-268 CNS) of 119 µM and a TGI (COLO 205 colon) of 99.6 µM. It also gave a TGI (UACC-257 melanoma) of 73.7 µM, a TGI (EKVX NSCLC) of 104 µM and a GI50 (NCI-H460 lung) of 1.24 µM. The TGI (NCI-H460 lung) was 12.3 µM, the TGI (HL-60(TB) leukemia) was greater than 93.9 µM and the TGI (A498 renal) was 99.6 µM. It also gave a TGI (SNB-75 CNS) of 115 µM, a TGI (P388/ADR leukemia) of 42.6 µM and a TGI (UO-31 renal) of 78.3 µM. For the same compound, the TGI (OVCAR-3 ovarian) was 84.8 µM, the TGI (SK-MEL-2 melanoma) was 118 µM and the TGI (DMS 114 small cell lung) was 123 µM. The TGI (NCI/ADR-RES ovarian) was 266 µM, the TGI (P388 leukemia) was 55.7 µM and the TGI (OVCAR-8 ovarian) was 133 µM. For the same compound, the GI50 (CCRF-CEM leukemia) was 35.8 µM, the TGI (CCRF-CEM leukemia) was 201 µM and the TGI (M19-MEL melanoma) was 64.5 µM. For the same compound, the TGI (MALME-3M melanoma) was 122 µM, the TGI (DLD-1 colon) was 103 µM and the GI50 (SW-620 colon) was 9.09 µM. It also gave a TGI (SW-620 colon) of 89.7 µM, a TGI (RPMI-8226 leukemia) of 173 µM and a GI50 (A549 NSCLC) of 6.75 µM. For the same compound, the TGI (A549 NSCLC) was 79.7 µM.
`COc1cccc(N2C(=O)C3C4C=C5c6ccccc6N(c6ccccc6)C5(C3C2=O)[C@H]2C(=O)N(c3cccc(OC)c3)C(=O)[C@@H]42)c1` (some centres not stated) showed a TGI (RXF 393 renal) greater than 100 µM, a TGI (KM20L2 colon) greater than 100 µM and a TGI (SK-OV-3 ovarian) greater than 100 µM. The TGI (SK-MEL-5 melanoma) was greater than 100 µM, the TGI (NCI-H23 lung) was greater than 100 µM and the TGI (SNB-19 CNS) was greater than 100 µM. For the same compound, the TGI (K-562 leukemia) was greater than 100 µM, the TGI (OVCAR-5 ovarian) was greater than 100 µM and the TGI (HOP-18 NSCLC) was greater than 100 µM. For the same compound, the TGI (LXFL 529 NSCLC) was greater than 100 µM, the TGI (HOP-92 NSCLC) was greater than 100 µM and the TGI (KM12 colon) was greater than 100 µM. For the same compound, the TGI (UACC-62 melanoma) was greater than 100 µM, the TGI (MOLT-4 leukemia) was greater than 100 µM and the TGI (SR leukemia) was greater than 100 µM. For the same compound, the TGI (HOP-62 NSCLC) was greater than 100 µM, the TGI (DMS 273 small cell lung) was greater than 100 µM and the TGI (XF 498 CNS) was greater than 100 µM. For the same compound, the TGI (OVCAR-4 ovarian) was greater than 100 µM, the TGI (U251 CNS) was greater than 100 µM and the TGI (SNB-78 CNS) was greater than 100 µM. It also gave a TGI (HCT-15 colon) greater than 100 µM, a TGI (NCI-H226 lung) greater than 100 µM and a TGI (RXF-631 renal) greater than 100 µM. For the same compound, the TGI (HCT-116 colon) was greater than 100 µM, the TGI (IGROV1 ovarian) was greater than 100 µM and the TGI (LOX IMVI melanoma) was greater than 100 µM. For the same compound, the TGI (SF-539 CNS) was greater than 100 µM, the TGI (M14 melanoma) was greater than 100 µM and the TGI (SN12C renal) was greater than 100 µM. It also gave a TGI (HT29 colon) greater than 100 µM, a TGI (SF-295 CNS) greater than 100 µM and a TGI (CAKI-1 renal) greater than 100 µM. The TGI (SF-268 CNS) was greater than 100 µM, the TGI (TK-10 renal) was greater than 100 µM and the TGI (COLO 205 colon) was greater than 100 µM. For the same compound, the TGI (UACC-257 melanoma) was greater than 100 µM, the TGI (EKVX NSCLC) was greater than 100 µM and the TGI (NCI-H460 lung) was greater than 100 µM. The TGI (HL-60(TB) leukemia) was greater than 100 µM, the TGI (A498 renal) was greater than 100 µM and the TGI (SNB-75 CNS) was greater than 100 µM. The TGI (UO-31 renal) was greater than 100 µM, the TGI (OVCAR-3 ovarian) was greater than 100 µM and the TGI (SK-MEL-2 melanoma) was greater than 100 µM. It also gave a TGI (DMS 114 small cell lung) greater than 100 µM, a TGI (OVCAR-8 ovarian) greater than 100 µM and a TGI (CCRF-CEM leukemia) greater than 100 µM. The TGI (M19-MEL melanoma) was greater than 100 µM, the TGI (MALME-3M melanoma) was greater than 100 µM and the TGI (DLD-1 colon) was greater than 100 µM. The TGI (SW-620 colon) was greater than 100 µM, the TGI (786-0 renal) was greater than 100 µM and the TGI (RPMI-8226 leukemia) was greater than 100 µM. It also gave a TGI (A549 NSCLC) greater than 100 µM.
